From patent US5775339A, “Photodynamic therapy of pigment-related lesions” (Pharmacyclics, Inc., priority 1997, dated 1998)
Where “and” joins values, the source holds several entries; their conditions need not be identical. Equal values may be shown once. Entries after “also recorded” stand apart in the source; their conditions may differ.

How the values were obtained:
[1] = Absorption of LuT2BET in 5% mannitol; assay type: physicochemical; details: 732 nm
Description: LuT2BET: The synthesis and chemical analysis of lutetium texaphyrin (LuT2BET, texaphyrin A2 of Table 1 where M is lutetium) was provided in U.S. Pat. Nos. 5,252,720 and 5,457,183 and in PCT publication WO 95/10307. LuT2BET was dissolved in 5% mannitol at a 2 mM concentration. LuT2BET absorbs strongly in the far-red region of the electromagnetic spectrum, having a molar extinction coefficient of 23,000 M^-1 cm^-1 in this solution at 732 nm, the wavelength used for photoirradiation.

[2] = Biodistribution of LuT2BET in B16 melanoma-bearing mice (fluorescence of tissue extracts and plasma); assay type: in vivo, C57 mice
Description: The present example provides results from a study of the biodistribution of lutetium texaphyrin in melanoma-bearing mice. The biodistribution of LuT2BET was analyzed in C57 mice bearing B16 melanoma at 3 h, 5 h, and 24 h after an intravenous administration of 10 or 20 μmol/kg.
(§1) Melanoma Cells: B16F10 melanotic melanoma murine cells were obtained from the University of California, San Francisco Cell Culture Facility. These cells are highly pigmented and metastatic in vivo. Cells were grown in Iscove's Modified Dulbeccos' Medium (Gibco, Grand Island, N.Y.) supplemented with 10% fetal bovine serum (JRH Biosciences, Woodland, Calif.) and penicillin/streptomycin (Sigma, St. Louis, Mo.).
(§2) Animals and Tumor Model: Inbred C57BL/6N female mice, (C57 mice) seven to eight weeks of age, were obtained from Simonsen Laboratories Inc. (Gilroy, Calif.). The right flanks of the mice were shaved and depiled the day prior to tumor inoculation. B16F10 cells (5×10^5 cells in 0.05 mL PBS) were injected subcutaneously into the right hind flanks. Tumor size, i.e., length (l), width (w), and height (h), was measured 3 times a week with a vernier caliper. Tumor volumes were calculated using the formula for a hemiellipsoid (Rockwell and Kallman, 1972): […]
Biodistribution studies were performed on tumors having surface diameters of between about 5.5-7 mm and a depth of 4-6 mm.
Tissue Extraction Procedure: LuT2BET was administered via tail-vein injection at 10 or 20 μmol/kg. Tissues and plasma were analyzed at 3, 5 or 24 h post administration of the photosensitizer. Blood was collected in tubes containing 5 mg of solid EDTA and erythrocytes were removed by centrifugation. Plasma samples (125 μL) were mixed with 10 mM TRITON X-100® and analyzed for texaphyrin content by fluorescence. […] Samples were then analyzed for lutetium texaphyrin content by fluorescence (excitation=450 nm, emission=700-800 nm). […] Sensitizer accumulation is expressed as μg drug/g tissue (wet weight) or per mL plasma.
Statistical analysis: Values are expressed as mean±SD. […]

mammary carcinoma SMT-F = test: Radiolabeled [14C]-LuT2BET uptake in SMT-F bearing mice; assay type: in vivo; details: 8.64 μmol/kg; for drug uptake (tumor): radiolabeled
Description: A dose of 8.64 μmol/kg LuT2BET produced drug uptake values of 5.1 μg/g, 4.7 μg/g, and 2.8 μg/g at 3 h, 5 h, and 24 h after injection, yielding tumor:muscle ratios of 8.45:1, 10:1 and 7:1, respectively.

[3] = design: species or system C57 mice; details: mouse, in vivo
From the text: Tumor Temperature Measurements: Tumor temperature during laser irradiation was monitored with a 33 gauge hypodermic thermocouple probe (Omega Engineering, Stamford, Conn.) placed percutaneously at the base of the tumor.

melanoma = assay type: in vivo, human; details: 0.5 μmol/kg i.v., 150 J/cm^2
Description: A patient with recurrent melanoma received a single dose of LuT2BET (0.5 μmol/kg; 2 mM in 5% mannitol/water; (a human equivalent of 10% of the mouse LD50)), administered intravenously, followed three hours later by photoirradiation by laser (732 nm light, 150 J/cm^2 at a power density of 75 mW/cm^2 using a LAMBDA PLUS® laser, Coherent, Palo Alto, Calif.). Four fields and a total of ten individual lesions were treated.

B16F10 melanoma = test: PDT response (tumor regrowth and survival) to LuT2BET and photoirradiation in melanoma-bearing mice; assay type: in vivo, C57 mice
Description: as §1, §2
Statistical analysis: Values are expressed as mean±SD. Values were compared using the unpaired Student's t-test. In the longevity analysis, Kaplan-Meier survival curves and log rank analysis for statistical significance were used. Statistical significance was assumed if P<0.05.
The present example provides results of a study wherein melanoma-bearing mice were administered LuT2BET and photoirradiated. […] PDT response was dependent upon drug dose, irradiation exposure and administration time.
PDT Protocol: C57 mice, bearing B16F10 melanoma as described in Example 1, were used for PDT experiments when the tumors reached surface diameters of between 4-6 mm and a depth of 2.5-3 mm. […] A 400 μm diameter fiberoptic cable coupled the laser to a microlens which produced uniform light intensity in the treatment field. Light fluences ranged between 150 and 600 J/cm^2, and the power density was set at 150 mW/cm^2 as measured with a power meter (Scientech, Boulder, Colo.). The mice were restrained with laboratory tape during photoirradiation.

B16 murine melanoma = B16 murine melanoma model; cited from earlier work
[4] = 10 μmol/kg, 300 J/cm^2, 5 h, n = 6
[5] = 10 μmol/kg, 500 J/cm^2, 5 h, n = 11
[6] = 20 μmol/kg, 150 J/cm^2, 24 h, n = 7
[7] = 20 μmol/kg, 300 J/cm^2, 24 h, n = 7

In the case of `CC(=O)[O-].CC(=O)[O-].CCc1c(CC)c2cc3nc(cnc4cc(OCCOCCOCCOC)c(OCCOCCOCCOC)cc4ncc4nc(cc1[n-]2)C(CCCO)=C4C)C(C)=C3CCCO.O.[Lu+3]` [LuT2BET], the molar extinction coefficient [1] is reported as 23,000 M^-1 cm^-1, the toxicity ([2]; 10 or 20 μmol/kg i.v., biodistribution study) is reported as “no toxicity was observed” and the “tumor levels compared with plasma, muscle and skin” value ([2]; mouse, in vivo) is reported as “higher than plasma, muscle and skin at all three time points”. For the same compound, the “uptake into B16 melanoma compared to SMT-F” value ([2]; mouse, in vivo) was “increased uptake of lutetium texaphyrin into B16 melanoma was observed”, the “tumor:muscle ratio” value (mammary carcinoma SMT-F; 3 h) was 8.45 :1 and the “drug uptake (tumor)” value (mammary carcinoma SMT-F; 3 h) was 5.1 µg/g. For the same compound, the “tumor:muscle ratio” value (mammary carcinoma SMT-F; 5 h) was 10 :1, the “drug uptake (tumor)” value (mammary carcinoma SMT-F; 5 h) was 4.7 µg/g and the “tumor:muscle ratio” value (mammary carcinoma SMT-F; 24 h) was 7 :1. The “drug uptake (tumor)” value (mammary carcinoma SMT-F; 24 h) was 2.8 µg/g, the “increase in tumor temperature” value [3] was “No measurable increase in tumor temperature” and the “response of remaining lesions” value (melanoma; several days post-therapy) was “the remaining lesions showed no change”. The “response of several larger lesions” value (melanoma; several days post-therapy) was “several of the larger lesions had decreased in size”, the “response of several smaller lesions” value (melanoma; several days post-therapy) was “several of the smaller lesions had disappeared” and the “response of lesions at two months” value (melanoma; two months post-therapy) was “continued to show improvement”. The “MST (median survival time following PDT)” value (B16F10 melanoma; 10 μmol/kg, 150 J/cm^2, 3 h, n = 3) was 23 days, the “Regrowth (time to reach ten times the original tumor volume)” value (B16F10 melanoma; 10 μmol/kg, 150 J/cm^2, 3 h, n = 12) was 15.0 ± 3.38 days and the “inhibition of tumor regrowth, in words” value (B16F10 melanoma; 10 μmol/kg, 300 J/cm^2, 5 h) was “no detectable inhibition of tumor regrowth was seen”. The “MST (median survival time following PDT)” value (B16F10 melanoma; [4]) was 17 days, the “Regrowth (time to reach ten times the original tumor volume)” value (B16F10 melanoma; [4]) was 8.5 ± 3.0 days and 8.5 days and the “PDT effect, in words” value (B16F10 melanoma; 10 μmol/kg, 400, 500 and 600 J/cm^2, 5 h) was “significantly increased the PDT effect”. The “Regrowth (time to reach ten times the original tumor volume)” value (B16F10 melanoma; 10 μmol/kg, 400 J/cm^2, 5 h, n = 7) was 11.6 ± 2.1 days, the “MST (median survival time following PDT)” value (B16F10 melanoma; 10 μmol/kg, 400 J/cm^2, 5 h, n = 8) was 18.5 days and the “MST (median survival time following PDT)” value (B16F10 melanoma; [5]) was 23 days. The “Regrowth (time to reach ten times the original tumor volume)” value (B16F10 melanoma; [5]) was 13.2 ± 3.5 days, the “Regrowth (time to reach ten times the original tumor volume)” value (B16F10 melanoma; 10 μmol/kg, 600 J/cm^2, 5 h, n = 5, P<0.0001) was 15.6 ± 3.6 days and 15.6 days and the “MST (median survival time following PDT)” value (B16F10 melanoma; 10 μmol/kg, 600 J/cm^2, 5 h, n = 6) was 28 days. The “survival time, in words” value (B16F10 melanoma; 10 μmol/kg, at least about 500 J/cm^2) was “A significant increase in survival time”, the “Regrowth (time to reach ten times the original tumor volume)” value (B16F10 melanoma; 10 μmol/kg, no light, n = 5) was 7.8 ± 0.8 days and the “MST (median survival time following PDT)” value (B16F10 melanoma; 10 μmol/kg, no light, n = 6) was 17.5 days. For the same compound, the “Regrowth (time to reach ten times the original tumor volume)” value (B16F10 melanoma; 20 μmol/kg, 150 J/cm^2, 5 h, n = 8) was 10.6 ± 2.9 days, the “MST (median survival time following PDT)” value (B16F10 melanoma; 20 μmol/kg, 150 J/cm^2, 5 h, n = 8, P=0.011) was 26 days and the “tumor regrowth, in words” value (B16F10 melanoma; 20 μmol/kg, 150 J/cm^2, 24 h) was “did not yield any significant change in tumor regrowth”. For the same compound, the “MST (median survival time following PDT)” value (B16F10 melanoma; [6]) was 19 days, the “Regrowth (time to reach ten times the original tumor volume)” value (B16F10 melanoma; [6]) was 6.7 ± 0.8 days and the “survival time, in words” value (B16F10 melanoma; 20 μmol/kg, 150 and 300 J/cm^2, 5 h) was “A significant increase in survival time”. For the same compound, the “Regrowth (time to reach ten times the original tumor volume)” value (B16F10 melanoma; 20 μmol/kg, 300 J/cm^2, 5 h, n = 13) was 15.3 ± 2.6 days and 15.3 days, the “MST (median survival time following PDT)” value (B16F10 melanoma; 20 μmol/kg, 300 J/cm^2, 5 h, n = 13, P=0.0002) was 27 days and the “MST (median survival time following PDT)” value (B16F10 melanoma; [7]) was 20 days. For the same compound, the “Regrowth (time to reach ten times the original tumor volume)” value (B16F10 melanoma; [7]) was 9.6 ± 2.1 days and 9.6 days, the “tumor response, in words” value (B16F10 melanoma; 20 μmol/kg, irradiated 5 h after administration, P<0.001) was “A significant response” and the “MST (median survival time following PDT)” value (B16F10 melanoma; 20 μmol/kg, no light, n = 5) was 15 days. For the same compound, the “Regrowth (time to reach ten times the original tumor volume)” value (B16F10 melanoma; 20 μmol/kg, no light, n = 5) was 8.2 ± 2.3 days, the “tumor regrowth, in words” value (B16F10 melanoma; 20 μmol/kg, sensitizer alone) was “No significant difference in tumor regrowth” and the “survival time, in words” value (B16F10 melanoma; LuT2BET alone, 10 and 20 μmol/kg, vs controls) was “no apparent difference between light alone, LuT2BET alone, and the controls”. For the same compound, the “longevity / survival time overall, in words” value (B16F10 melanoma; PDT, 10 or 20 μmol/kg) was “increased longevity of the treated animals; also recorded: in some cases the longevity of the animals was doubled; also recorded: significantly increased the survival time of the melanoma-bearing mice” and the “retardation of tumor growth overall, in words” value (B16F10 melanoma; PDT, 10 or 20 μmol/kg) was “significant retardation of growth of the tumor; also recorded: efficacious in the retardation of the highly pigmented B16 melanoma in C57 mice”.

For silicon(IV)-naphthalocyanine, the “tumor retardation not associated with thermal effects” value (B16 murine melanoma) is listed as “modest” and the tumor selectivity (B16 murine melanoma) is listed as “no tumor selectivity”.
